PubChem BioAssay (NCI)
Where “and” joins values, the source holds several entries; their conditions need not be identical. Equal entries are not always repeated.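 Five compound concentrations were applied to cells in 96-well plates for 48 hours; endpoints were derived by simple linear interpolation of the resulting dose-response curve. GI50: concentration for 50% inhibition of growth. TGI denotes the concentration required for complete inhibition of growth.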

Tests used:
Assay in all cases: NCI-60 cell line screen, 48 h
[1] = system: UACC-62 melanoma
[2] = system: NCI-H23 lung
[3] = system: SNB-75 CNS
[4] = system: HT29 colon
[5] = system: SR leukemia
[6] = system: CCRF-CEM leukemia
[7] = system: SW-620 colon
[8] = system: TK-10 renal
[9] = system: SK-MEL-5 melanoma
[10] = system: LOX IMVI melanoma

Compound	TGI [1]	TGI [2]	TGI [3]	TGI [4]	TGI [5]	TGI [6]	TGI [7]	TGI [8]	TGI [9]	TGI [10]	GI50 [1]	GI50 [2]	GI50 [3]	GI50 [4]	GI50 [5]	GI50 [6]	GI50 [7]	GI50 [8]	GI50 [9]	GI50 [10]
OCC1CC2CC1C1(C2)OCCO1 (centres undefined)	> 100 µM	> 100 µM	> 100 µM	> 100 µM	> 100 µM	> 100 µM	> 100 µM	> 100 µM	> 100 µM	> 100 µM										
O=C(N/N=C\c1cc(Cl)ccc1O)N/N=C/c1cc(Cl)ccc1O	> 100 µM	> 100 µM	> 100 µM	> 100 µM	> 100 µM	> 100 µM	> 100 µM	> 100 µM	> 100 µM	> 100 µM	0.918 µM	2.34 µM	0.969 µM	9.57 µM	78.5 µM	2.51 µM	0.807 µM	> 100 µM	6.41 µM	2.14 µM
N#CC(/C(=N\NC(N)=S)C(=O)NC1C2CC3CC(C2)CC1C3)c1ccc(Cl)cc1 (centres undefined)	> 100 µM	> 100 µM	> 100 µM	> 100 µM	> 100 µM	> 100 µM	> 100 µM	> 100 µM	> 100 µM	> 100 µM										
CCNC1=CC(=O)c2ncccc2C1=O	2.3 µM	2.53 µM	2.45 µM	6.59 µM	11 µM	42.4 µM	4.3 µM	29.7 µM	1.11 µM	3.22 µM	1.06 µM	0.504 µM	1.19 µM	2.82 µM	3.71 µM	6.14 µM	1.75 µM	15.6 µM	0.298 µM	1 µM
O=C1CCCc2c(O)ccc(O)c21	> 100 µM	> 100 µM	> 100 µM	> 100 µM	91.2 µM	71.7 µM	> 100 µM	> 100 µM	> 100 µM	> 100 µM										
Nc1nc(Cl)cc(NCCCCCCCCCCNc2cc(Cl)nc(N)n2)n1	> 100 µM	> 100 µM	68.8 µM	> 100 µM	> 100 µM	> 100 µM	> 100 µM	> 100 µM	4.47 µM	24.2 µM										
COc1cc([N+](=O)[O-])c2ncccc2c1O	5.1 µM	4.8 µM	17.2 µM	22.9 µM	> 100 µM	> 100 µM	> 100 µM	94.5 µM	2.9 µM	33.6 µM	1.94 µM	1.37 µM	2.96 µM	2.26 µM	20.6 µM	95.2 µM	4.07 µM	10.7 µM	1.47 µM	3.88 µM
COCCOC(=O)CCn1cc(F)c(=O)[nH]c1=O	> 150 µg/mL	> 150 µg/mL	> 150 µg/mL	> 150 µg/mL	> 150 µg/mL	> 150 µg/mL	> 150 µg/mL	> 150 µg/mL	> 150 µg/mL	> 150 µg/mL	11 µg/mL	17.2 µg/mL	88.4 µg/mL	4.55 µg/mL	2.97 µg/mL	16 µg/mL	26.9 µg/mL	6.77 µg/mL	20.4 µg/mL	10.4 µg/mL
O=C(O)c1c(Cl)c(Cl)c(Cl)c(Cl)c1-c1c2cc(I)c(=O)c(I)c-2oc2c(I)c(O)c(I)cc12	41.3 µM and 68.6 µM	125 µM	79.8 µM	154 µM	87.6 µM	95.7 µM	79.1 µM	> 200 µM	68.9 µM	43.1 µM and 67.9 µM	18.6 µM and 31.6 µM	47 µM	32.1 µM and 34 µM	52.6 µM	39.1 µM and 31.6 µM	30.2 µM and 41.9 µM	74.4 µM and 37.6 µM	59 µM	36.3 µM	19 µM and 34.7 µM
NC(=O)Cn1c(=O)[nH]c(=O)c2[nH]cnc21	> 100 µM	> 100 µM	> 100 µM	> 100 µM	> 100 µM	> 100 µM	> 100 µM	> 100 µM	> 100 µM	> 100 µM										
NC(=NC1C2CC3CC(C2)CC1C3)Nc1ccc(I)cc1 (centres undefined)	9.33 µM	10.7 µM	15.7 µM	10.8 µM	6.84 µM	> 100 µM	11.6 µM	8.85 µM	2.95 µM	3.51 µM	2.88 µM	2.77 µM	2.09 µM	3.1 µM	2.49 µM	3.43 µM	2.64 µM	2.59 µM	1.57 µM	1.78 µM
O=C1CCC(c2ccccc2)(c2ccccc2)CC1	> 100 µM	> 100 µM	> 100 µM	> 100 µM	> 100 µM	52 µM	> 100 µM	> 100 µM	> 100 µM	> 100 µM										
C/C(=N\n1c(N)c(C#N)c(-c2ccc(Cl)cc2)c(C#N)c1=O)c1cccnc1	> 100 µM	> 100 µM	99.6 µM	> 100 µM	> 100 µM	> 100 µM	> 100 µM	> 100 µM	> 100 µM	> 100 µM	> 100 µM	> 100 µM	14.6 µM	> 100 µM	> 100 µM	> 100 µM	> 100 µM	> 100 µM	> 100 µM	> 100 µM
Cc1ccc(C)c(NC(=O)CCc2n[nH]c(=S)o2)c1	> 100 µM	> 100 µM	> 100 µM	> 100 µM	> 100 µM	> 100 µM	> 100 µM	> 100 µM	> 100 µM	> 100 µM										
O=C(O)CCN1C(=O)/C(=C/C(Cl)=C/c2ccccc2)SC1=S	3.42 µM	4.63 µM	10.1 µM	5.88 µM	5.47 µM	8.25 µM	6.32 µM	9.59 µM	3.47 µM	3.04 µM	1.52 µM	1.96 µM	1.79 µM	2.57 µM	0.929 µM	1.87 µM	2.3 µM	4.19 µM	1.84 µM	1.5 µM
COc1ccc(C2CC(C)=Nc3c([nH]c(=S)[nH]c3=O)N2)cc1 (centres undefined)	32.1 µM	55.6 µM	70.1 µM	47.3 µM	65 µM	54.4 µM	19 µM	58.1 µM	32.5 µM	34.4 µM										
CC(Cl)CC(=O)Nc1ccc2c(c1)oc(=O)c1cc(NC(=O)CC(C)Cl)ccc12 (centres undefined)	49.9 µM	> 100 µM	48.7 µM	34.5 µM	20.7 µM	29 µM	> 100 µM	23.8 µM	27.9 µM	21.9 µM	15.1 µM	50 µM	15.1 µM	12.2 µM	3.42 µM	11.1 µM	33.3 µM	10.1 µM	11.5 µM	4.46 µM
CCOc1ccc(N2C(N)=NC(N)=NC2(C)C)cc1	> 100 µM	> 100 µM	> 100 µM	> 100 µM	> 100 µM	> 100 µM	> 100 µM	> 100 µM	> 100 µM	> 100 µM	43.8 µM	58.8 µM	60.5 µM	58.1 µM	74.6 µM	> 100 µM	37.6 µM	> 100 µM	40.8 µM	45.8 µM
C[C@H]1CC(=O)[C@@]2(O)C#C/C=C\C#C[C@@H]3Nc4c(cc(O)c5c4C(=O)c4ccccc4C5=O)[C@]24O[C@]314	0.133 µM	0.0592 µM and 0.101 µM	0.0804 µM and 0.0719 µM	> 25 µM	0.0426 µM		0.306 µM and 0.337 µM		0.123 µM and 0.0412 µM	0.18 µM and 0.326 µM		0.00359 µM	0.0062 µM	0.0253 µM		0.0025 µM	0.0059 µM	0.492 µM		0.0025 µM
O=C(/C=C/c1cccs1)Nc1ncc(Cc2ccccc2F)s1	> 100 µM	> 100 µM	0.651 µM	> 100 µM	> 100 µM	> 100 µM	> 100 µM	> 100 µM	> 100 µM	> 100 µM	0.207 µM	2.78 µM	0.154 µM	0.21 µM	0.0522 µM	0.254 µM	0.159 µM		0.242 µM	0.18 µM
C=C1C(=O)O[C@H]2[C@H](OC(C)=O)[C@@H](C)CCC/C(C)=C/CC[C@]3(CO3)[C@H](O)C[C@@H]12	25.3 µM	18.3 µM	22.9 µM	11.5 µM	3.94 µM	4.77 µM	10.7 µM	4.62 µM	27.4 µM	4.75 µM	12.7 µM	4.87 µM	10.8 µM	3.23 µM	1.32 µM	1.87 µM	3.24 µM	1.83 µM	13.4 µM	2.07 µM
CCn1cc(C2NC(=O)c3cc(F)ccc3N2)c2cccc(Cl)c21 (centres undefined)	> 61.9 µM	> 100 µM	11.9 µM	> 100 µM	> 100 µM	> 50.3 µM	> 100 µM	> 100 µM	> 100 µM	> 100 µM	0.0843 µM	0.508 µM	0.123 µM	0.276 µM	0.039 µM	0.172 µM	0.193 µM	> 100 µM	0.446 µM	0.374 µM
C/C(=N\N=C(N)N)c1sc(-c2nc(C)c(/C(C)=N/N=C(N)N)s2)nc1C	> 100 µM	> 100 µM	> 100 µM	> 100 µM	> 66.4 µM	> 100 µM	> 100 µM	> 100 µM	> 100 µM	> 58.3 µM										
CN1C=CN(Cc2ccc(-c3ccccn3)nc2)[CH-]1.CN1C=CN(Cc2ccc(-c3ccccn3)nc2)[CH-]1.[Au+3]	6.67 µM	> 100 µM	> 51.8 µM	> 100 µM	42.7 µM	13.4 µM	17.2 µM	27 µM	17.8 µM	13.4 µM	1.4 µM	5.37 µM	13.9 µM	1.96 µM	0.372 µM	0.0834 µM	0.898 µM	5.09 µM	1.36 µM	2.89 µM
C/C(=N\NC(=S)Nc1ccc([N+](=O)[O-])cc1S(=O)(=O)O)c1ccccn1	> 100 µM	> 100 µM	> 100 µM	> 100 µM	75.6 µM	> 100 µM	56.5 µM	> 100 µM	> 100 µM	> 100 µM										
Cc1ccc(S(=O)(=O)ON=C2CC(c3ccccc3)N(C)C(c3ccccc3)C2)cc1 (centres undefined)	31.1 µM	62.9 µM and 47.8 µM	79.3 µM and 66.9 µM	54.7 µM and 57.3 µM	62.5 µM and 57.3 µM	> 100 µM	38.8 µM and 31.2 µM	49.1 µM and 48.5 µM	32.5 µM and 31.8 µM	27.5 µM and 26.9 µM										
C1CCN2CC34CC(CC5CCCN(C6CCCC3N6)C54)C2C1 (centres undefined)	> 100 µM	> 100 µM	> 100 µM	> 100 µM	> 100 µM	> 100 µM	> 100 µM	> 100 µM	> 100 µM	> 100 µM										
CCCCCCCCSC(SCCCCCCCC)=C1C(=O)N(c2ccccc2)N=C1C	> 100 µM	95.1 µM	> 100 µM	> 100 µM	34.6 µM	44 µM	29 µM	> 100 µM	> 100 µM	36.2 µM										
CCc1ccc(/C=C2/SC(=S)NC2=O)cc1	28.9 µM	47 µM	> 100 µM	> 80 µM	> 84.9 µM	> 80.4 µM	> 100 µM	> 85.4 µM	37.6 µM	> 71.5 µM	12.3 µM	18.6 µM	21.7 µM	27.9 µM	19.4 µM	22.6 µM	27.2 µM	23.4 µM	14.9 µM	22.4 µM
COCCOCCOCCOCCOc1ccc2c(c1)C(=O)c1nc3ncccc3c(=O)n1-2	1.07 µM	1.18 µM	3.65 µM	3.7 µM	> 100 µM	7.4 µM	2.36 µM	2.69 µM	0.312 µM	1.62 µM	0.371 µM	0.279 µM	2.07 µM	1.47 µM	2.25 µM	2.43 µM	1.15 µM	1.29 µM	0.158 µM	0.39 µM
